For test [1], the target named is T1, ABL1(F317L)-phosphorylated (Homo sapiens, UniProt P00519, F317L).
T1 construct: purchased DiscoveRx
Kind of test: KinomeScan. The format is binding. As to conditions: read-out: % Control.

The target in the next test is T2, ABL1-nonphosphorylated (Homo sapiens, UniProt P00519).
T2 construct: purchased DiscoveRx
Kind of test: KinomeScan. The format is binding. The conditions noted are these: read-out: % Control.

A further test concerns the target CSNK1G2 (Homo sapiens, UniProt P78368). As to the kind of experiment: KinomeScan. The format is binding. The conditions noted are these: read-out: % Control.
Another test concerns the target T3, EGFR(G719C) (Homo sapiens, UniProt P00533, G719C).
T3 construct: purchased DiscoveRx (Fremont, CA), KinomeScan service
As to the kind of experiment: KinomeScan. It is filed as binding. As to conditions: read-out: % Control.

A further test concerns the target T4, ITK (Homo sapiens, UniProt Q08881).
T4 construct: purchased DiscoveRx (Fremont, CA)
As to the kind of experiment: KinomeScan. The format is binding. As to conditions: read-out: % Control.

A further test concerns the target T5, ULK1 (Homo sapiens, UniProt O75385).
T5 construct: purchased DiscoveRx
As to the kind of experiment: KinomeScan. The format is binding. The conditions noted are these: read-out: % Control.

The next test concerns the target T6, H2 (Homo sapiens, UniProt P25021).
T6 construct: host or cells: Chem-1 cells with promiscuous Gα15
As to the kind of experiment: GPCR Profiler. It is filed as cell-based.

In a further test the test system is RKO. Kind of test: Cell Titer-Glo viability, Colorectal adenocarcinoma. It is filed as cell-based. As to the method:
OGM2 kills wide variety of cancer cell types. Cell sensitivity can be classified in to Very Sensitive (LC50<2 μM), Sensitive (LC50=2 to 10 μM), Mildly Sensitive (LC50>10 μM), and Refractory (no killing at 10 μM). The listed established cell were incubated with OGM2 at 2 μM or 10 μM for 72 hours under standard cell culture conditions, and relative cell number was assessed using Cell Titer-Glo Luminescent Cell Viability Assay (Promega™) following the manufacturer's instructions. Luminescence was determined using a Cytation 5 reader and Gen5 software package (BioTek™).
Cancer cells, which are very sensitive to killing by OGM2 (LCs <2 μM), with reported mRNA expression of GPR68 and the related proton sensing receptor GPR4. LC50's (concentrations causing 50% lethality) were determined using CellTiter-Glo (Promega™, G7570). Cells were plated in 12-well plates (CELLTREAT Scientific Products, 229112) in 1 ml of DMEM with high glucose, GlutaMAX, HEPES, or RPMI 1640 with Penicillin-Streptomycin (ThermoFisher™, 10564029, 11875119 and 15140122) and 10% FBS. Cells were incubated overnight at 37° C. in 5% CO2. Then 1 mL of fresh media was added with DMSO, OGM, or positive control (Erastin; APExBIO Technology, LLC, B1524) and cells incubated for 3 days. On the third day, all media was removed, cells were rinsed with 1×PBS, PBS was removed, and 200 μL of 1× Passive Lysis Buffer (Promega™, E1941) was added to each well. […]. Subsequently, 20 μL of lysate was added to 100 μL CellTiter-Glo™ reagent on a LUMITRAC 200 plate (Greiner™ bio-one, 82050-726). Plates were briefly spun down and read on a GloMax-Multi Detection System (Promega™).
The cells listed in the tables above were incubated with OGM2 at 2 μM or 10 μM for 72 hours under standard cell culture conditions, and relative cell number was assessed using Cell Titer-Glo Luminescent Cell Viability Assay (Promega™) following the manufacturer's instructions. Luminescence was determined using a Cytation 5 reader and Gen5 software package (BioTek™). RNA expression of GPR68 and GPR4 in the corresponding cancer cell lines are listed, according to the publicly available The Human Protein Atlas version 22.0 and Ensembl version 103.38 (see proteinatlas.org). The consensus normalized expression value (“nTPM”=normalize transcript per million) was calculated as the maximum nTPM value for each gene in the two data sources.

A further test deals with U87. Kind of test: Immunogenic cell death markers (CRT externalization, ATP secretion). It is filed as cell-based, human. As to the method:
OGM2 treatment of […] increases makers of immunogenic cell death (ICD, such as release of ATP into the extracellular environment ([…]) and calreticulin (CRT) externalization (FIG. 94B and FIG. 94C). Extracellular ATP content was assessed using the Enliten Atp Assay System (PROMEGA) (FIG. 94A). Calreticulin (CRT) externalization 3- and 6-hours post-treatment (see FIG. 94B and FIG. 94C) in U87 cells was assessed using immunofluorescence analysis using polyclonal antibody against calreticulin (Invitrogen™). Immunogenic cell death (ICD) is defined by expression or release of damage-associated molecular patterns (DAMPs), including extracellular ATP release and calreticulin externalization, which stimulate antitumor immune response, which in turn contributes to long-lasting protective antitumor immunity. […]
For the CRT externalization assay, U87 cells were seeded on 96-well plate, then treated with DMSO, […] (DOX), […] and […] (shown as OGM in the figures). […] Cells labelled with CRT were counted automatically with Lionheart™ automated microscope and % of CRT+ cells calculated. […]
For the ATP secretion assay, U87 cells were seeded on 96-well plate, then treated with DMSO, […] (DOX), […] and […] (OGM). At 6 hours, extracellular ATP levels were measured using the ENLITEN ATP Assay (Promega™). […]

In another test the test system is HKSA-induced ALI. As to the kind of experiment: HKSA-induced acute lung injury. The format is in vivo, C57Bl mice. The conditions noted are these: OGM2 40 mg/kg. As to the method:
FIG. 37A through FIG. 37D: OGM2 attenuates HKSA- and LPS-induced acute lung injury (ALI) in vivo. FIG. 37A: GPR68 mRNA is markedly elevated in lungs, heart and brain of HKSA-challenged (5×10^7/kg, i/n, 18 hr) C57Bl mice). FIG. 37B: LPS (0.7 mg/kg intratracheal) and […] ALI in mice markedly increases mRNA expression of GPR68, relative to GPR4, GPR65, and GPR132; *p<0.01 vs. vehicle; n=3.

Read-outs that look alike come from different tables or passages of the source. Where only a bound is given, the exact number is not on record here.

T6 sequence (P25021 whole entry): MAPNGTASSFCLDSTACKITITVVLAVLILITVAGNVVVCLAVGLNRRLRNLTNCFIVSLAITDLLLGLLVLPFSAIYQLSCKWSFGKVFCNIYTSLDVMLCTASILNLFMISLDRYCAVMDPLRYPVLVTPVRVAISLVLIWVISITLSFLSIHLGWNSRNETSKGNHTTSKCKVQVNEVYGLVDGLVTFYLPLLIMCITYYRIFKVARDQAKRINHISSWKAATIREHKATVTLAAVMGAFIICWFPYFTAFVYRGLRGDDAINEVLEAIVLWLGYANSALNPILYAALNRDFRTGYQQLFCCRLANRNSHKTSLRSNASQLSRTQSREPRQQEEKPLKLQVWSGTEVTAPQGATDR
T1 sequence (P00519 242-493 F317L limits assumed): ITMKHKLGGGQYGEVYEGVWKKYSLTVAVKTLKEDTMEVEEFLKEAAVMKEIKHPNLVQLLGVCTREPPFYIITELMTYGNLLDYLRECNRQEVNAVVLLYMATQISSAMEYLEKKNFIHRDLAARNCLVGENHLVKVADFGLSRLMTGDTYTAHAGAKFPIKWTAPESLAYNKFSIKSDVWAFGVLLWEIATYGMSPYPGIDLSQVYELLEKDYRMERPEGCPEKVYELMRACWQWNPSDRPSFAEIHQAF
T2 sequence (P00519 242-493 limits assumed): as the sequence (P00519 242-493 F317L limits assumed) above, with L76F counted along it
CSNK1G2, sequence (P78368 whole entry): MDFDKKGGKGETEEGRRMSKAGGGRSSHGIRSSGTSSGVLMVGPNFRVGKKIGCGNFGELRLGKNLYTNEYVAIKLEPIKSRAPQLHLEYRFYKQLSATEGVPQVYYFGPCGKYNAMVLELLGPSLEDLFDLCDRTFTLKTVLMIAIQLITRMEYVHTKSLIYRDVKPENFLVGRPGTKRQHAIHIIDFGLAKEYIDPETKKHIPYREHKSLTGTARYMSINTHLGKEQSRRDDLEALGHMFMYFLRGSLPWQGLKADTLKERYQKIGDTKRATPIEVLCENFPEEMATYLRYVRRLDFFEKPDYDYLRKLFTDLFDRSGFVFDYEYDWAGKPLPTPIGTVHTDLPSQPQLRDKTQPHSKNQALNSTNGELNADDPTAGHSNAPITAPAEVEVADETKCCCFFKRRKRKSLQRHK
T3 sequence (P00533 25-1210 G719C): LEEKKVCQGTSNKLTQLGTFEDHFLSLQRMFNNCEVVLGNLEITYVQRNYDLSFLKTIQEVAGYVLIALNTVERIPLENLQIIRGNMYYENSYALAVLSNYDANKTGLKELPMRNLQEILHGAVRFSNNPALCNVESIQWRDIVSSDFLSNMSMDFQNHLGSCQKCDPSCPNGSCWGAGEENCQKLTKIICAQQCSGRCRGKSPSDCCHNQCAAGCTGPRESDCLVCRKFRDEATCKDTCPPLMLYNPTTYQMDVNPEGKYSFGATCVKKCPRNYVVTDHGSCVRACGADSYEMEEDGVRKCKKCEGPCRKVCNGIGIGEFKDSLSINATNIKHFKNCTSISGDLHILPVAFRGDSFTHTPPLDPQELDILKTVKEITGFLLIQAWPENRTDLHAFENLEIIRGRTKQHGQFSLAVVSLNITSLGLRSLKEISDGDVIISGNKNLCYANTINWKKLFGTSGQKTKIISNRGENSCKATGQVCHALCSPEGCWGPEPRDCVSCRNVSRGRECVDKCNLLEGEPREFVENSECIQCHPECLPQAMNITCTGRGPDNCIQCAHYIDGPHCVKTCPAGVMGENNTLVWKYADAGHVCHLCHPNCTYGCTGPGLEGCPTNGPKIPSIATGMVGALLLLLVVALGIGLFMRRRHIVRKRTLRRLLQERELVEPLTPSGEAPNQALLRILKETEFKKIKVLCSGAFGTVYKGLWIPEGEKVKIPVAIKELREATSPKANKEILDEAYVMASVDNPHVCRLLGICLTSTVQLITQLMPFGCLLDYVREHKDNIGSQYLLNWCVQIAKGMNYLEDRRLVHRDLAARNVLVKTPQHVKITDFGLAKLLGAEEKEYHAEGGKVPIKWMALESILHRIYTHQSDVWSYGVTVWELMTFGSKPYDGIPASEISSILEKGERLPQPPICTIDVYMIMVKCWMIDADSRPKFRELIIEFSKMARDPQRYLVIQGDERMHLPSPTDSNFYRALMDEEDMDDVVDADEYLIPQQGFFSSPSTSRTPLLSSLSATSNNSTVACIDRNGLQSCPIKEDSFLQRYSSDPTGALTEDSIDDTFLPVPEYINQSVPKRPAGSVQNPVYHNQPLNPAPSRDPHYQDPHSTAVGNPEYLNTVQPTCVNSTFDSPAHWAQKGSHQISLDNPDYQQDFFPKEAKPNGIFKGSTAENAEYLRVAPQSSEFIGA
T5 sequence (O75385 whole entry): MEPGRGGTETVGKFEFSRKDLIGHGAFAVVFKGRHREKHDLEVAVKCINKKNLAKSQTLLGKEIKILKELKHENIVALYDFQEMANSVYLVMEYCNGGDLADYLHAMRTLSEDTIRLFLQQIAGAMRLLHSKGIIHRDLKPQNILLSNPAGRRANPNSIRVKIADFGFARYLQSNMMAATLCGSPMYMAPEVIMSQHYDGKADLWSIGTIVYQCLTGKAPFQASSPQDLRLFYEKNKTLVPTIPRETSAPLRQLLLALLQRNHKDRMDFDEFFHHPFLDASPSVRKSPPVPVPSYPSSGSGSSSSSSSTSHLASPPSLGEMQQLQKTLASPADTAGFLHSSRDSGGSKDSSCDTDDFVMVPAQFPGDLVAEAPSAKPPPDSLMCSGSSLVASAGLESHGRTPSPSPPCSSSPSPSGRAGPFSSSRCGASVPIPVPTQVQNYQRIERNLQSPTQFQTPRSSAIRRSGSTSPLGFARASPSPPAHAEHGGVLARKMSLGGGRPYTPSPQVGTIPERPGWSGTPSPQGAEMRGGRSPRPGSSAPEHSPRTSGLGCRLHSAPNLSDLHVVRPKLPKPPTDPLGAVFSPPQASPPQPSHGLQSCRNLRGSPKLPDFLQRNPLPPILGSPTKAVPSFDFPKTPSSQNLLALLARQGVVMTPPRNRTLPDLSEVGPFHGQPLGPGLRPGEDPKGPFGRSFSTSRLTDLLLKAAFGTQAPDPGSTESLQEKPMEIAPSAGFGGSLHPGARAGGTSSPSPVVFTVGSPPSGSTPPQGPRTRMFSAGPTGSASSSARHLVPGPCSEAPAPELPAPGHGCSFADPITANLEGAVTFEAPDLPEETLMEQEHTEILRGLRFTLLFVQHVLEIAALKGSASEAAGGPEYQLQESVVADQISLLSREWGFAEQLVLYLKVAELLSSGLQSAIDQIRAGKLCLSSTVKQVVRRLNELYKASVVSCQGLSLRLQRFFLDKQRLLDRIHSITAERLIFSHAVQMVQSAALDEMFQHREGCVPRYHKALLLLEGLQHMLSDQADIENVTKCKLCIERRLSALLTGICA
T4 sequence (Q08881 whole entry): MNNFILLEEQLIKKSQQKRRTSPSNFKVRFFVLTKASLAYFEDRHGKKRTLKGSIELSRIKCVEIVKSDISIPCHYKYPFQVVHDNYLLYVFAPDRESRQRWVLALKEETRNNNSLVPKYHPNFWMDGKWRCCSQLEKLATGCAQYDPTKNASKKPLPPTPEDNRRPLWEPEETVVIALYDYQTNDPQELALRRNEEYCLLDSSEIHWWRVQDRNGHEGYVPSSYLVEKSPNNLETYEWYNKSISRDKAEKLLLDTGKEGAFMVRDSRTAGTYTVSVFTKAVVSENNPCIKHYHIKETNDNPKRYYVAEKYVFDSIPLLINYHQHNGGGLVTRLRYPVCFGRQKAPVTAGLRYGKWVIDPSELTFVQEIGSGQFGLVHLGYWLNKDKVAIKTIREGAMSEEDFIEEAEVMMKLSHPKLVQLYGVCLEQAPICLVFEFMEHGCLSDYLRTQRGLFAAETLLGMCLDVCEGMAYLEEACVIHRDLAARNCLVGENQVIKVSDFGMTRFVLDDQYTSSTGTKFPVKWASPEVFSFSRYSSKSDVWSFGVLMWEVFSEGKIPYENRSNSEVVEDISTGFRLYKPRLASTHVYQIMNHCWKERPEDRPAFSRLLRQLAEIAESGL

`CCc1ccc2c(c1)C1(NN=C(c3cccc4ccccc34)S1)C(=O)N2` (centres unmarked) [OGM1, 5-ethyl-5′-naphthalen-1-ylspiro[1H-indole-3,2′-3H-1,3,4-thiadiazole]-2-one]: the remaining binding at 10 µM in test [1] was found to be 92%; on ABL1-nonphosphorylated, 100%; at CSNK1G2, 100%; at EGFR(G719C), 100%; on ITK, 100%; at ULK1, 100%. The molecule further displayed an Antagonism at H2 (10 uM) of 1.3. The molecule further gave an Agonism on H2 (12.5 uM) of 0.1.
Regarding `CCc1ccc2c(c1)C1(NN=C(c3ccccc3)S1)C(=O)N2` (centres unmarked) [OGM2], the Class result in the test with RKO is “Mildly”. In the test with RKO (72 hours), the “% Survival 2 μM OGM” value worked out at 92.4% and the “% Survival 10 μM OGM” value is reported as 57.6%. The CC50 with RKO (Homo sapiens, RKO, 72 hours, read-out: LC50 (the source's name)) was above 10 µM. Moreover, in the test on RKO (Table 13), the Class entry is “Low”. Further, the “externalization of CRT” value in the test on U87 (3 hours of treatment) is “significant externalization of CRT”. Also, the “secretion of ATP” value in the test on U87 (6 hours) is on record as “secretion of ATP”. Besides, in the test on HKSA-induced ALI (3 hr post administration), the “lung vascular leak (Evans blue-labeled albumin)” value is reported as “significantly attenuated”. Besides, in the test on HKSA-induced ALI (i.p.), the “inflammatory cytokine (TNFα, IL-6, KC, IL-1β) transcripts in the lungs” value is reported as “significantly attenuated induction”.

Source of the values: US20240327364A1, “THERAPEUTIC TARGETING OF GPR68 TO INDUCE FERROPTOSIS” (University Of Maryland, Baltimore, priority 2023, published 2024).
